Measured values: PubChem BioAssay AID270 (DTP/NCI, 2004)
Several values for one entry are separate records, joined by “and”; a condition that tells them apart may be missing. Equal values may be shown once. Inconclusive results are not listed.

Test system: BDF1 mice, s.c. Lewis lung carcinoma, T/C %
Assay: NCI In Vivo Anticancer Drug Screen. Data for tumor model Lewis Lung Carcinoma (subcutaneous) in B6D2F1 (BDF1) mice
Summary of the method: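 Transplanted tumors grown in mice; compound vs vehicle dosing; endpoint survival or tumor size; ratio T/C.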

## O=NN(CCCl)C(=O)NC1CCCCC1
endpoint: median survival time, dose: 0.12 mg/kg/injection, schedule: Q08HX024 (ip), vehicle: Klucel (hydroxypropylcellulose) (HPC), higher = longer survival
  T/C: 91 % of control
endpoint: median survival time, dose: 0.12 mg/kg/injection, schedule: Q08HX024 (ip), vehicle: saline, higher = longer survival
  T/C: 181 % of control
endpoint: median survival time, dose: 0.25 mg/kg/injection, schedule: Q08HX024 (ip), vehicle: Klucel (hydroxypropylcellulose) (HPC), higher = longer survival
  T/C: 106 % of control and 111 % of control
endpoint: median survival time, dose: 0.25 mg/kg/injection, schedule: Q08HX024 (ip), vehicle: saline, higher = longer survival
  T/C: 182 % of control
endpoint: median survival time, dose: 0.5 mg/kg/injection, schedule: Q08HX024 (ip), vehicle: Klucel (hydroxypropylcellulose) (HPC), higher = longer survival
  T/C: 103 % of control and 115 % of control
endpoint: median survival time, dose: 0.5 mg/kg/injection, schedule: Q08HX024 (ip), vehicle: saline, higher = longer survival
  T/C: 103 % of control
endpoint: median survival time, dose: 1.0 mg/kg/injection, schedule: Q08HX024 (ip), vehicle: Klucel (hydroxypropylcellulose) (HPC), higher = longer survival
  T/C: 119 % of control
endpoint: median survival time, dose: 1.0 mg/kg/injection, schedule: Q08HX024 (ip), vehicle: saline, higher = longer survival
  T/C: 91 % of control
endpoint: median survival time, dose: 2.4 mg/kg/injection, schedule: Q01DX001 (ip), vehicle: other, higher = longer survival
  T/C: 120 % of control
endpoint: median survival time, dose: 4.0 mg/kg/injection, schedule: Q01DX009 (ip), vehicle: saline with Tween-80, higher = longer survival
  T/C: 112 % of control
endpoint: median survival time, dose: 4.7 mg/kg/injection, schedule: Q01DX001 (ip), vehicle: other, higher = longer survival
  T/C: 109 % of control
endpoint: median survival time, dose: 5.0 mg/kg/injection, schedule: Q01DX001 (ip), vehicle: Klucel (hydroxypropylcellulose) (HPC), higher = longer survival
  T/C: 95 % of control and 106 % of control and 123 % of control
endpoint: median survival time, dose: 8.0 mg/kg/injection, schedule: Q01DX009 (ip), vehicle: saline with Tween-80, higher = longer survival
  T/C: 120 % of control
endpoint: median survival time, dose: 9.5 mg/kg/injection, schedule: Q01DX001 (ip), vehicle: other, higher = longer survival
  T/C: 105 % of control
endpoint: median survival time, dose: 10.0 mg/kg/injection, schedule: Q01DX001 (ip), vehicle: Klucel (hydroxypropylcellulose) (HPC), higher = longer survival
  T/C: 86 % of control and 91 % of control and 111 % of control
endpoint: median survival time, dose: 12.5 mg/kg/injection, schedule: Q01DX001 (ip), vehicle: Klucel (hydroxypropylcellulose) (HPC), higher = longer survival
  T/C: 93 % of control and 113 % of control
endpoint: median survival time, dose: 12.5 mg/kg/injection, schedule: Q01DX001 (ip), vehicle: saline with Tween-80, higher = longer survival
  T/C: 158 % of control
endpoint: median survival time, dose: 18.9 mg/kg/injection, schedule: Q01DX001 (ip), vehicle: other, higher = longer survival
  T/C: 150 % of control
endpoint: median survival time, dose: 20.0 mg/kg/injection, schedule: Q01DX001 (ip), vehicle: Klucel (hydroxypropylcellulose) (HPC), higher = longer survival
  T/C: 97 % of control and 115 % of control
endpoint: median survival time, dose: 25.0 mg/kg/injection, schedule: Q01DX001 (ip), vehicle: Klucel (hydroxypropylcellulose) (HPC), higher = longer survival
  T/C: 108 % of control
endpoint: median survival time, dose: 27.0 mg/kg/injection, schedule: Q11DX002 (ip), vehicle: Klucel (hydroxypropylcellulose) (HPC), higher = longer survival
  T/C: 111 % of control
endpoint: median survival time, dose: 32.0 mg/kg/injection, schedule: Q01DX009 (ip), vehicle: Klucel (hydroxypropylcellulose) (HPC), higher = longer survival
  T/C: 94 % of control
endpoint: median survival time, dose: 33.0 mg/kg/injection, schedule: Q01DX001 (ip), vehicle: carboxymethylcellulose (CMC), higher = longer survival
  T/C: 102 % of control
endpoint: median survival time, dose: 33.0 mg/kg/injection, schedule: Q06DX002 (ip), vehicle: carboxymethylcellulose (CMC), higher = longer survival
  T/C: 180 % of control
endpoint: median survival time, dose: 33.0 mg/kg/injection, schedule: Q08DX002 (ip), vehicle: carboxymethylcellulose (CMC), higher = longer survival
  T/C: 100 % of control
endpoint: median survival time, dose: 33.0 mg/kg/injection, schedule: Q12DX002 (ip), vehicle: carboxymethylcellulose (CMC), higher = longer survival
  T/C: 102 % of control
endpoint: median survival time, dose: 37.8 mg/kg/injection, schedule: Q01DX001 (ip), vehicle: other, higher = longer survival
  T/C: 160 % of control
endpoint: median survival time, dose: 40.0 mg/kg/injection, schedule: Q11DX002 (ip), vehicle: Klucel (hydroxypropylcellulose) (HPC), higher = longer survival
  T/C: 79 % of control and 97 % of control
endpoint: median survival time, dose: 40.0 mg/kg/injection, schedule: Q11DX002 (oral), vehicle: Klucel (hydroxypropylcellulose) (HPC), higher = longer survival
  T/C: 86 % of control
endpoint: median survival time, dose: 50.0 mg/kg/injection, schedule: Q01DX001 (ip), vehicle: Klucel (hydroxypropylcellulose) (HPC), higher = longer survival
  T/C: 67 % of control
endpoint: median survival time, dose: 50.0 mg/kg/injection, schedule: Q01DX001 (ip), vehicle: carboxymethylcellulose (CMC), higher = longer survival
  T/C: 100 % of control
endpoint: median survival time, dose: 50.0 mg/kg/injection, schedule: Q06DX002 (ip), vehicle: carboxymethylcellulose (CMC), higher = longer survival
  T/C: 151 % of control
endpoint: median survival time, dose: 50.0 mg/kg/injection, schedule: Q08DX002 (ip), vehicle: carboxymethylcellulose (CMC), higher = longer survival
  T/C: 92 % of control
endpoint: median survival time, dose: 50.0 mg/kg/injection, schedule: Q10DX002 (ip), vehicle: carboxymethylcellulose (CMC), higher = longer survival
  T/C: 103 % of control
endpoint: median survival time, dose: 50.0 mg/kg/injection, schedule: Q12DX002 (ip), vehicle: carboxymethylcellulose (CMC), higher = longer survival
  T/C: 115 % of control
endpoint: median survival time, dose: 60.0 mg/kg/injection, schedule: Q11DX002 (ip), vehicle: Klucel (hydroxypropylcellulose) (HPC), higher = longer survival
  T/C: 53 % of control and 113 % of control
endpoint: median survival time, dose: 60.0 mg/kg/injection, schedule: Q11DX002 (oral), vehicle: Klucel (hydroxypropylcellulose) (HPC), higher = longer survival
  T/C: 90 % of control
endpoint: median survival time, dose: 75.7 mg/kg/injection, schedule: Q01DX001 (ip), vehicle: other, higher = longer survival
  T/C: 124 % of control
endpoint: median survival time, dose: 80.0 mg/kg/injection, schedule: Q01DX001 (ip), vehicle: Klucel (hydroxypropylcellulose) (HPC), higher = longer survival
  T/C: 112 % of control
endpoint: median survival time, dose: 90.0 mg/kg/injection, schedule: Q11DX002 (oral), vehicle: Klucel (hydroxypropylcellulose) (HPC), higher = longer survival
  T/C: 75 % of control
endpoint: median survival time, dose: 100.0 mg/kg/injection, schedule: Q01DX001 (ip), vehicle: saline with Tween-80, higher = longer survival
  T/C: 154 % of control
endpoint: median survival time, dose: 160.0 mg/kg/injection, schedule: Q01DX001 (ip), vehicle: Klucel (hydroxypropylcellulose) (HPC), higher = longer survival
  T/C: 110 % of control
endpoint: median tumor weight (est.), dose: 4.0 mg/kg/injection, schedule: Q01DX009 (ip), vehicle: Klucel (hydroxypropylcellulose) (HPC), higher = larger tumour
  T/C: 66 % of control
endpoint: median tumor weight (est.), dose: 8.0 mg/kg/injection, schedule: Q01DX009 (ip), vehicle: Klucel (hydroxypropylcellulose) (HPC), higher = larger tumour
  T/C: 46 % of control
endpoint: median tumor weight (est.), dose: 12.5 mg/kg/injection, schedule: Q01DX001 (ip), vehicle: Klucel (hydroxypropylcellulose) (HPC), higher = larger tumour
  T/C: 88 % of control
endpoint: median tumor weight (est.), dose: 16.0 mg/kg/injection, schedule: Q01DX009 (ip), vehicle: Klucel (hydroxypropylcellulose) (HPC), higher = larger tumour
  T/C: 3 % of control
endpoint: median tumor weight (est.), dose: 19.0 mg/kg/injection, schedule: Q01DX001 (ip), vehicle: carboxymethylcellulose (CMC), higher = larger tumour
  T/C: 72 % of control
endpoint: median tumor weight (est.), dose: 25.0 mg/kg/injection, schedule: Q01DX001 (ip), vehicle: Klucel (hydroxypropylcellulose) (HPC), higher = larger tumour
  T/C: 48 % of control
endpoint: median tumor weight (est.), dose: 38.0 mg/kg/injection, schedule: Q01DX001 (ip), vehicle: carboxymethylcellulose (CMC), higher = larger tumour
  T/C: 46 % of control
endpoint: median tumor weight (est.), dose: 57.0 mg/kg/injection, schedule: Q01DX001 (ip), vehicle: carboxymethylcellulose (CMC), higher = larger tumour
  T/C: 34 % of control
